The values that follow come from ChEMBL document CHEMBL3045406, “Enantioselective Relieving Activity of α-Methylbenzylphenylureas toward Bensulfuron-methyl Injury to Rice (Oryza sativa)” (Biosci Biotechnol Biochem, 1999).

In one data set the test system is Oryza sativa. Nature of the data set: Effect on Oryza sativa (rice) assessed as growth rate at 10 uM relative to control. As to conditions: in vivo. It is filed as organism-based.
For the compound `C[C@@H](NC(=O)Nc1cc(F)cc(F)c1)c1ccccc1`, the Activity is reported as 96%.

As for `C[C@H](NC(=O)Nc1ccccc1C(F)(F)F)c1ccccc1`, the Activity was 97%.

Consider `C[C@@H](NC(=O)Nc1ccc(I)cc1)c1ccccc1`, for which the Activity is listed as 85%.

A further data set has as its system Oryza sativa. Nature of the data set: Relieving activity against bensulfuron-methyl induced injury to Oryza sativa (rice) assessed as growth rate at 10 uM (Rbv = 46 to 53%). It is filed as functional.
Settings: not given
Consider `C[C@@H](NC(=O)Nc1cc(F)cc(F)c1)c1ccccc1`, for which the Activity was found to be 65%.

As for `C[C@H](NC(=O)Nc1ccccc1C(F)(F)F)c1ccccc1`, the Activity stood at 92%.

On to `C[C@@H](NC(=O)Nc1ccc(I)cc1)c1ccccc1`, for which the Activity is 79%.

A further data set has as its system Oryza sativa. Nature of the data set: Effect on Oryza sativa (rice) assessed as growth rate at 0.1 uM relative to control. It is filed as organism-based. To be noted: in vivo.
Take `C[C@@H](NC(=O)Nc1cc(F)cc(F)c1)c1ccccc1`: the Activity turned out to be 98%.

As to `C[C@H](NC(=O)Nc1ccccc1C(F)(F)F)c1ccccc1`, the Activity came out at 97%.

On to `C[C@@H](NC(=O)Nc1ccc(I)cc1)c1ccccc1`, for which the Activity is on record as 100%.

Another data set deals with Oryza sativa. Nature of the data set: Safener indices, ratio of compound effect of Oryza sativa (rice) growth rate to relieving activity against bensulfuron-methyl induced injury to Oryza sativa growth rate at 0.1 uM.
Settings: not given
In the case of `C[C@@H](NC(=O)Nc1cc(F)cc(F)c1)c1ccccc1`, the Ratio is 10.

As to `C[C@H](NC(=O)Nc1ccccc1C(F)(F)F)c1ccccc1`, the Ratio was determined as 12.

On to `C[C@@H](NC(=O)Nc1ccc(I)cc1)c1ccccc1`, for which the Ratio is listed as 35.

Another data set relates to Oryza sativa. As to the kind of experiment: Safener indices, ratio of compound effect of Oryza sativa (rice) growth rate to relieving activity against bensulfuron-methyl induced injury to Oryza sativa growth rate at 10 uM.
Settings: not given
Turning to `C[C@@H](NC(=O)Nc1cc(F)cc(F)c1)c1ccccc1`, the Ratio amounted to 33.

Turning to `C[C@H](NC(=O)Nc1ccccc1C(F)(F)F)c1ccccc1`, the Ratio was determined as 85.

`C[C@@H](NC(=O)Nc1ccc(I)cc1)c1ccccc1`: the Ratio is 63.

In a further data set the test system is Oryza sativa. Nature of the data set: Safener indices, ratio of compound effect of Oryza sativa (rice) growth rate to relieving activity against bensulfuron-methyl induced injury to Oryza sativa growth rate at 1 uM.
Settings: not given
As for `C[C@@H](NC(=O)Nc1cc(F)cc(F)c1)c1ccccc1`, the Ratio was 20.

As for `C[C@H](NC(=O)Nc1ccccc1C(F)(F)F)c1ccccc1`, the Ratio is on record as 40.

As for `C[C@@H](NC(=O)Nc1ccc(I)cc1)c1ccccc1`, the Ratio is given as 58.

The test system of another data set is Oryza sativa. Nature of the data set: Effect on Oryza sativa (rice) assessed as growth rate at 1 uM relative to control. It is filed as organism-based. To be noted: in vivo.
As to `C[C@@H](NC(=O)Nc1cc(F)cc(F)c1)c1ccccc1`, the Activity amounted to 98%.

`C[C@H](NC(=O)Nc1ccccc1C(F)(F)F)c1ccccc1`: the Activity is 98%.

As for `C[C@@H](NC(=O)Nc1ccc(I)cc1)c1ccccc1`, the Activity was 91%.

The next data set deals with Oryza sativa. As to the kind of experiment: Relieving activity against bensulfuron-methyl induced injury to Oryza sativa (rice) assessed as growth rate at 0.1 uM (Rbv = 46 to 53%). It is filed as functional.
Settings: not given
Regarding `C[C@@H](NC(=O)Nc1cc(F)cc(F)c1)c1ccccc1`, the Activity stood at 54%.

With `C[C@H](NC(=O)Nc1ccccc1C(F)(F)F)c1ccccc1`, the Activity worked out at 56%.

For the compound `C[C@@H](NC(=O)Nc1ccc(I)cc1)c1ccccc1`, the Activity turned out to be 69%.

System in the next data set: not listed separately
Nature of the data set: Hydrophobicity, log K of the compound. It is filed as physicochemical. To be noted: octanol/water.
For the compound `C[C@@H](NC(=O)Nc1cc(F)cc(F)c1)c1ccccc1`, the “log K” value is 0.452.

Consider `C[C@H](NC(=O)Nc1ccccc1C(F)(F)F)c1ccccc1`, for which the “log K” value came to 0.456.

Regarding `C[C@@H](NC(=O)Nc1ccc(I)cc1)c1ccccc1`, the “log K” value was determined as 0.556.

Another data set has as its system Oryza sativa. Nature of the data set: Relieving activity against bensulfuron-methyl induced injury to Oryza sativa (rice) assessed as growth rate at 1 uM (Rbv = 46 to 53%). It is filed as functional.
Settings: not given
In the case of `C[C@@H](NC(=O)Nc1cc(F)cc(F)c1)c1ccccc1`, the Activity is given as 59%.

On to `C[C@H](NC(=O)Nc1ccccc1C(F)(F)F)c1ccccc1`, for which the Activity is given as 70%.

Consider `C[C@@H](NC(=O)Nc1ccc(I)cc1)c1ccccc1`, for which the Activity amounted to 78%.
